Test [1] can be described thus: cells.
The nature of test [2]: microbe, parasite or virus in culture. It is filed as functional. The conditions noted are these: Mycobacterium tuberculosis.
Test [3] addresses T1, DNA repair protein RAD52 homolog (Homo sapiens, UniProt P43351).
T1 sequence (P43351 whole entry): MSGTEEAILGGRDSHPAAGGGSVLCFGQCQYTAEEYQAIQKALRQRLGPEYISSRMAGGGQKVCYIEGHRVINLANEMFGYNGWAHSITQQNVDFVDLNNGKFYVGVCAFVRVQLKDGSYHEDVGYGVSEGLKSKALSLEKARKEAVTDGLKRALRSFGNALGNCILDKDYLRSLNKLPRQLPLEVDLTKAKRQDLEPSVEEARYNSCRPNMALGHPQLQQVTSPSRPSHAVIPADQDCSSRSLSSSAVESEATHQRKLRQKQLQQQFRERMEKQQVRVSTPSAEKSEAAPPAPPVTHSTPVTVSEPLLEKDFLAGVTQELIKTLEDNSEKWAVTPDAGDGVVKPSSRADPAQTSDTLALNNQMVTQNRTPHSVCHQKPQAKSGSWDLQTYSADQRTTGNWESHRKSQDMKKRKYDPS
It is filed as functional, biochemical.

Test [4] can be described thus: cells. It is filed as functional, cell-based.
Test [5] can be described thus: cells. The test is classed as functional, cell-based. This is another data set of the same source.
Test [6] deals with T2, Adenosylmethionine-8-amino-7-oxononanoate aminotransferase (Mycobacterium tuberculosis, UniProt P9WQ81).
T2 sequence (P9WQ81 whole entry): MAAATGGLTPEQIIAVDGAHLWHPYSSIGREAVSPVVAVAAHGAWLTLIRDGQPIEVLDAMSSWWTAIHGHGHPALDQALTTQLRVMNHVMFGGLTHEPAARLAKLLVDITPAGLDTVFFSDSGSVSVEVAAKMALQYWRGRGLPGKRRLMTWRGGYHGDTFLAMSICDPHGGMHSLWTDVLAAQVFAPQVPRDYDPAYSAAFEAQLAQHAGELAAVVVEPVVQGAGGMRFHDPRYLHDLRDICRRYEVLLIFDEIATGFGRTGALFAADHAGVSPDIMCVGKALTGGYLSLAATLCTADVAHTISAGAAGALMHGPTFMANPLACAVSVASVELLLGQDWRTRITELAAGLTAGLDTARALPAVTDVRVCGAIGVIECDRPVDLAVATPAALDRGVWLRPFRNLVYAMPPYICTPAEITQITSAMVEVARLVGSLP
Nature of the test: Mycobacterium tuberculosis BioA enzyme inhibitor Measured in Biochemical System Using Plate Reader - 2163-02_Inhibitor_Dose_CherryPick_Activity. It is filed as functional, Mycobacterium tuberculosis UT205.

For another test, the target named is T3, Leucine aminopeptidase (Plasmodium falciparum 3D7, UniProt Q8IL11).
T3 sequence (Q8IL11 whole entry): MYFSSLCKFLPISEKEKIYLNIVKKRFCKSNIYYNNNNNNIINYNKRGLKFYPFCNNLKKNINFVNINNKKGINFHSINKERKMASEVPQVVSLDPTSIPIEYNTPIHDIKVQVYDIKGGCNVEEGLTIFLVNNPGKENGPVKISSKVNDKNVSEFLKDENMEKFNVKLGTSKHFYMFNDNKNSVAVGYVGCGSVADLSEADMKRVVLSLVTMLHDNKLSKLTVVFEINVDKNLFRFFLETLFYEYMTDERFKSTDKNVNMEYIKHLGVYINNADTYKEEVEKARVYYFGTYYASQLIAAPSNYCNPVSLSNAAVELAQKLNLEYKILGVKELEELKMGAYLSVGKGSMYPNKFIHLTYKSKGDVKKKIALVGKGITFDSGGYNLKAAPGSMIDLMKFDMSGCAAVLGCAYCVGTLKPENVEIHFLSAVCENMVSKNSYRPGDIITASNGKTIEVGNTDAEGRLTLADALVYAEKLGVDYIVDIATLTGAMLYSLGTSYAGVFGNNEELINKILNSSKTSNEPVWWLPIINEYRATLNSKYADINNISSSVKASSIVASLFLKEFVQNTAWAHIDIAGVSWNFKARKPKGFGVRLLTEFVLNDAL
Kind of test: P. falciparum M17LAP inhibitors, primary screen, biochemical, fluorogenic H-Leu-NHMec substrate, 1536-well (AID 1619). The test is classed as functional.

The target in the next test is T4, Estrogen receptor (Homo sapiens, UniProt P03372).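 Note: potency for inhibiting coactivator peptide recruitment to the receptor.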
T4 sequence (P03372 whole entry): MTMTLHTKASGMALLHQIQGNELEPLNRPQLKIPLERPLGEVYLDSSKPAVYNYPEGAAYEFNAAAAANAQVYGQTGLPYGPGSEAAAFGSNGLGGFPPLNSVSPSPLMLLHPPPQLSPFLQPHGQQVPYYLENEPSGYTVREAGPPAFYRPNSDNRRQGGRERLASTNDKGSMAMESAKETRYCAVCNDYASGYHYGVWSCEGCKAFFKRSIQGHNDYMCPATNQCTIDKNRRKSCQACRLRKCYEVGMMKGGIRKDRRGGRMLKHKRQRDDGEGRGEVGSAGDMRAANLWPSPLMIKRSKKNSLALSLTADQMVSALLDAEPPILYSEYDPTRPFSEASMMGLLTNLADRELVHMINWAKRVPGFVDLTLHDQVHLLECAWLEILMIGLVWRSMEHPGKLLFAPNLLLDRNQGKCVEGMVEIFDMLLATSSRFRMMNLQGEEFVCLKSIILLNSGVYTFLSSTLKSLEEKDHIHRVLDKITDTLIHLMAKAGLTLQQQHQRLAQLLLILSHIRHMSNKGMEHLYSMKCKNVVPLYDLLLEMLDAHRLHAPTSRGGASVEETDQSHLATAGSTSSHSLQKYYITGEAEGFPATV

A short description of test [7]: M. tuberculosis H37Rv growth inhibitors, H37Rv strain (AID 1626). It is filed as functional.
Test [8] deals with T5, Rac GTPase-activating protein 1 (Homo sapiens, UniProt Q9H0H5).
T5 sequence (Q9H0H5 whole entry): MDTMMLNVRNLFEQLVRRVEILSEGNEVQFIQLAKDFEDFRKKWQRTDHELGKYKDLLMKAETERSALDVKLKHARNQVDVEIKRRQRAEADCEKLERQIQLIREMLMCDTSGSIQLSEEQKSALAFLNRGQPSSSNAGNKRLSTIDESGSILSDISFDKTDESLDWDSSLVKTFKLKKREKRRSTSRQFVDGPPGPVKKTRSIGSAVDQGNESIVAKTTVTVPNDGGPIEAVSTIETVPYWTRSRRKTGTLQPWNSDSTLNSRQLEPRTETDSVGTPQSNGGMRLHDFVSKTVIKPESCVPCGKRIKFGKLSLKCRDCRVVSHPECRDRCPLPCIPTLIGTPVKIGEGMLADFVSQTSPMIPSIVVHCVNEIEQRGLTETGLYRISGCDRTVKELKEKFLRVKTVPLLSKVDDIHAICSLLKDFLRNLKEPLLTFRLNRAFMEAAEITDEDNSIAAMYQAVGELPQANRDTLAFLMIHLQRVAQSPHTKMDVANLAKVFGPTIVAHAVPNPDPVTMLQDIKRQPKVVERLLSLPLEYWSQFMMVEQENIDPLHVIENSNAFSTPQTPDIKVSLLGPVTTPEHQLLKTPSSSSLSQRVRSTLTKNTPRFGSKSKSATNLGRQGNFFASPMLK
Nature of the test: MgcRacGAP GTPase-activating activity inhibitors, confirmation, biochemical, ADP Hunter fluorescence, primary and confirmatory (AID 624330). The test is classed as functional.

Test [9] in a line: cells. It is filed as functional, cell-based. The source holds these as a separate data set.
Test [10] is described as follows: cells. It is filed as functional, cell-based. This is another data set of the same source.
Test [11] is described as follows: HEp-2 cell cytotoxicity, dose response, cytotoxicity control for RSV inhibitor project, HTS (AID 2410). The test is classed as functional. As to conditions: human respiratory syncytial virus.
A short description of test [12]: NIH:OVCAR-3 ovarian cancer cell cytotoxicity, dose response, PAX8 inhibitor project, plate reader, dry powder samples (AID 743044). It is filed as functional, cell-based.
For another test, the target named is Paired box protein Pax-8 (Homo sapiens, UniProt Q06710). Nature of the test: inhibitors of PAX8-driven TPO luciferase reporter, dose response, RMG-I cells, cherry-pick (AID 687027).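 Note: luciferase reporter driven by Pax8 target thyroperoxidase promoter measured by SteadyGlo luminescence.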 The test is classed as functional, cell-based. A general note: A reporter such as luciferase makes a cellular process visible.
Sequence of Paired box protein Pax-8 (Q06710 whole entry): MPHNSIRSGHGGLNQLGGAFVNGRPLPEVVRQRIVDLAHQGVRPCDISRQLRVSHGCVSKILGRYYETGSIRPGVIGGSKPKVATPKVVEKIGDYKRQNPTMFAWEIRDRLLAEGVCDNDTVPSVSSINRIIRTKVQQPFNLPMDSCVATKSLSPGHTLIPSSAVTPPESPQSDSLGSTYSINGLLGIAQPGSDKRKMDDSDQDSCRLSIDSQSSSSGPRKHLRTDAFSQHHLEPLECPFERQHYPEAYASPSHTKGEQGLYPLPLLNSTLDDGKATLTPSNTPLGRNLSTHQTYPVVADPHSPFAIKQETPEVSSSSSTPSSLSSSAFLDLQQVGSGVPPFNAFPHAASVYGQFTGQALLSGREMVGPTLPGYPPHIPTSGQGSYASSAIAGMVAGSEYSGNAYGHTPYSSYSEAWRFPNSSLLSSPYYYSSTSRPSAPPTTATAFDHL

The source made the active and inactive calls. Bounds are passed on as bounds.

Take `Cc1ccc(-c2nc3c(c(=O)c4ccccc4n3C)c(=O)n2Cc2ccco2)cc1`: the IC50 in “cells [1]” is 5.74 µM (active). In addition, the CC50 in test [2] was 38.3 µM (active).

As for `N=C(N)Nc1cc2ccccc2c2ccccc12`, the concentration at half-maximal activity (AC50) in test [3] is 7.61 µM (active). Besides, the IC50 in “cells [4]” is > 29.9 µM (inactive). For the same molecule, the EC50 in “cells [5]” was > 29.9 µM (inactive).

Take `COc1ccc(NC(=O)c2ccc(S(=O)(=O)N(C)C)cc2)cc1OC`: the half-maximal activity concentration (AC50) in [6] is 9.66 µM (active).

For `O=C(O)Cn1cc(/C=C2/NC(=O)N(c3ccc(Cl)cc3)C2=O)c2ccccc21`, at Leucine aminopeptidase, the 50% inhibitory concentration (IC50) is 11.9 µM (active).

For `O=C(NNC(=O)c1ccc(SCC2CCCO2)c([N+](=O)[O-])c1)c1ccc(Cl)c([N+](=O)[O-])c1` (centres undefined), the IC50 on Estrogen receptor is 23.3 µM (active).

For the molecule `O=S(=O)(Nc1cccc2nsnc12)c1ccccc1`, the half-maximal inhibitory concentration (IC50) on Leucine aminopeptidase is 15.5 µM (active).

As for `O=C(Cc1cccs1)N1CCN=C1SCc1ccc(Br)cc1`, the half-maximal inhibitory concentration (IC50) in [7] is > 100 µM (active).

As to `CC(C)c1onc(C(=O)NCCc2ccccc2)c1[N+](=O)[O-]`, the IC50 in the test “cells [4]” is > 29.9 µM (inactive). Further, the EC50 in the test “cells [5]” was > 29.9 µM (inactive).

Regarding `CC(=O)c1ccc(N2CCN(C(=O)c3ccc4[nH]cnc4c3)CC2)cc1`, the concentration at half-maximal activity (AC50) in test [6] is 8.11 µM (active).

Turning to `COc1ccc(NC(=O)CSc2ncn(-c3ccccc3)n2)cc1Cl`, in test [7], the IC50 was > 100 µM (active).

As to `O=C(CNCc1ccco1)Nc1ccc(Oc2ccccc2)cc1`, the half-inhibitory concentration (IC50) in test [8] is 122 µM (active); in test [7] it was > 100 µM (active).

On to `Cc1nnc(N2CCC(C(=O)N3CCCCC3)CC2)c2nn(-c3ccc(Cl)cc3)c(C)c12`, for which the half-maximal activity concentration (AC50) in test [6] is 4.14 µM (active).

Consider `CC(C)(C)c1cc(NC(=O)c2cc(F)c(F)c(F)c2F)no1`, for which the IC50 in the test “cells [1]” was 41.2 µM (active).

Take `Cn1nnc2cc(C(=O)N3CCC(c4ccccc4)C3)ccc21` (centres undefined): the half-maximal effective concentration (EC50) in the test “cells [9]” and in “cells [10]” was > 350 µM (not active) each time. Further, the half-maximal activity concentration (AC50) in [6] is 4.86 µM (active).

Regarding `O=C(CSc1nc[nH]n1)Nc1ncc(C(F)(F)F)cc1Cl`, on Leucine aminopeptidase, the half-inhibitory concentration (IC50) is 19.6 µM (active).

Consider `O=C(COC(=O)CCC(=O)c1cccs1)NCc1ccco1`, for which the half-inhibitory concentration (IC50) at Estrogen receptor was 11.9 µM (active).

Regarding `Cc1cc(SCC(=O)NC(=O)NCc2ccco2)nc2c(C)cccc12`, on Estrogen receptor, the IC50 is given as 32 µM (not active).

On to `Cc1ccccc1-n1c(C)nnc1SCc1cc(=O)oc2ccc3ccccc3c12`, for which the half-inhibitory concentration (IC50) in “cells [1]” is > 50 µM (active). Besides, the CC50 in test [11] is > 50 µM (active).

For the molecule `COC(=O)c1cc(NC(=O)C2CC=CCC2C(=O)O)cc(C(=O)OC)c1` (centres undefined), the IC50 at Leucine aminopeptidase was 28.6 µM (active).

For the molecule `O=C(CCCOc1ccccc1)NCCc1ccccc1`, the IC50 in the test “cells [4]” is > 29.9 µM (inactive). The EC50 in the test “cells [5]” was > 29.9 µM (inactive).

On to `O=C(Nc1nc(-c2ccc(-c3ccccc3)cc2)cs1)c1cnccn1`, for which the IC50 in test [7] was > 100 µM (active).

For `CC(=O)N1[C@@H]2c3ccc(-c4cccnc4)c(=O)n3C[C@@H]2[C@@H](CO)[C@@H]1C(=O)NCc1ccccc1Cl`, the AC50 in [6] is 1.09 µM (active).

`C[C@@H]1CN([C@H](C)CO)C(=O)c2cc(NS(=O)(=O)c3ccc(Cl)cc3)ccc2O[C@@H](C)CCCCO[C@H]1CN(C)Cc1ccc(Cl)c(Cl)c1`: the AC50 is 32.8 µM (active) in test [12] and 4.84 µM (active) at Paired box protein Pax-8.

Turning to `COc1ccc(/N=C/c2ccc[nH]2)cc1`, the IC50 in test [7] was > 100 µM (active).

What is called IC50 is the concentration at which inhibition is half-maximal. What is called AC50 is the concentration at which the activity in the assay is half-maximal. A word on the EC50: it is the concentration that produces a half-maximal response.
